Laboratory results reported in ChEMBL document CHEMBL4028829, “New derivatives of ursolic acid through the biotransformation by Bacillus megaterium CGMCC 1.1741 as inhibitors on nitric oxide production” (Bioorg Med Chem Lett, 2017).
pIC50: −log10 of the molar value.

Assays:
[1] = system: RAW264.7; test: Inhibition of LPS-induced NO production in mouse RAW264.7 cells preincubated for 1 hr followed by LPS stimulation measured after 24 hrs by Griess assay; format: functional, cell-based; details: for pIC50: Mus musculus, RAW264.7, read-out: IC50
[2] = system: RAW264.7; test: Pro-inflammatory activity in mouse RAW264.7 cells assessed as LPS-induced NO production at 0.625 to 60 uM preincubated for 1 hr followed by LPS stimulation measured after 24 hrs by Griess assay; format: ADME, cell-based; details: raw264.7, 24 h

| SMILES | pIC50 [1] | Activity [2] | IC50 ([1]; raw264.7) |
| --- | --- | --- | --- |
| C[C@H]1[C@H](C)CC[C@]2(C(=O)O[C@@H]3O[C@H](CO)[C@@H](O)[C@H](O)[C@H]3O)CC[C@]3(C)C(=C[C@@H](O)[C@@H]4[C@@]5(C)[C@H](O)CC(=O)C(C)(C)[C@@H]5CC[C@]43C)[C@H]12 | < 4.22 |  |  |
| C[C@H]1[C@H](C)CC[C@@]23CC[C@]4(C)[C@@](C=C[C@@H]5[C@@]6(C)[C@H](O)CC(=O)C(C)(C)[C@@H]6CC[C@]54C)(OC2=O)[C@H]13 | 5.77 |  |  |
| O=c1c(O)c(-c2ccc(O)c(O)c2)oc2cc(O)cc(O)c12 [QUERCETIN] | 5.36 |  |  |
| C[C@H]1[C@H](C)CC[C@]2(C(=O)O)CC[C@]3(C)C(=C[C@@H](O)[C@@H]4[C@@]5(C)[C@H](O)CC(=O)C(C)(C)[C@@H]5CC[C@]43C)[C@H]12 | 5.91 |  |  |
| C[C@H]1[C@H](C)CC[C@]2(C(=O)O)CC[C@]3(C)C(=CC[C@@H]4[C@@]5(C)CCC(=O)C(C)(C)[C@@H]5CC[C@]43C)[C@H]12 [URSONIC ACID] | 5.31 |  |  |
| C[C@H]1[C@H](C)CC[C@]2(C(=O)O)CC[C@]3(C)C(=CC[C@@H]4[C@@]5(C)CC[C@H](O)C(C)(C)[C@@H]5CC[C@]43C)[C@H]12 [URSOLIC ACID] |  | Toxic | Not Active |
| C[C@H]1[C@H](C)CC[C@]2(C(=O)O)CC[C@]3(C)C(=C[C@@H](O)[C@@H]4[C@@]5(C)[C@H](O)C[C@H](O)C(C)(C)[C@@H]5CC[C@]43C)[C@H]12 | 4.40 |  |  |
